This is an account of results in ChEMBL document CHEMBL3045654, “Mechanisms of Low Susceptibility to Imidacloprid in a Laboratory Strain of the Small Brown Planthopper, Laodelphax striatellus FALLEN” (J Pestic Sci, 1997).

Data set [1] relates to Laodelphax striatellus. The data set is described as follows: Insecticidal activity againstLaodelphax striatella N (small brown planthopper) treated topically after 24 hr in presence of 20 ng/insect of […]. Type of data set: functional. The settings on record: topical.
In data set [2] the test system is Laodelphax striatellus. Nature of the data set: Insecticidal activity againstLaodelphax striatella N (small brown planthopper) treated topically after 24 hr in presence of 2 ng/insect of tributylphosportrithioate. Type of data set: functional. The settings on record: topical.
Data set [3] has as its system Laodelphax striatellus. The data set is described as follows: Drug penetration inLaodelphax striatella N (small brown planthopper) at 0.1 ng/insect treated topically after 1 hr. It is filed as ADME, organism-based. The settings on record: in vivo, topical_or_ocular.
For data set [4], the system named is Laodelphax striatellus. Nature of the data set: Insecticidal activity againstLaodelphax striatella S (small brown planthopper) treated topically after 24 hr. It is filed as functional. Conditions: topical.
Data set [5] has as its system Laodelphax striatellus. Nature of the data set: Insecticidal activity againstLaodelphax striatella N (small brown planthopper) treated topically after 24 hr. Conditions: topical. Type of data set: functional.
The test system of data set [6] is Laodelphax striatellus. Nature of the data set: Insecticidal activity againstLaodelphax striatella N (small brown planthopper) treated topically after 24 hr in presence of 40 ng/insect of piperonylbutoxide. It is filed as functional. Conditions: topical.
In data set [7] the test system is Laodelphax striatellus. Nature of the data set: Drug penetration inLaodelphax striatella S (small brown planthopper) at 0.1 ng/insect treated topically after 1 hr. Conditions: in vivo, topical_or_ocular. Type of data set: ADME, organism-based.

For orientation: LD50 means the dose expected to kill half of the subjects tested. Consider `O=[N+]([O-])NC1=NCCN1Cc1ccc(Cl)nc1` [IMIDACLOPRID], for which the LD50 in the data set with Laodelphax striatellus [1] was 1.19 mg/kg; with Laodelphax striatellus [2], 1.06 mg/kg; with Laodelphax striatellus [4], 0.12 mg/kg; in the data set on Laodelphax striatellus [5] it was 2.17 mg/kg; in the data set on Laodelphax striatellus [6] it was 1.11 mg/kg. Also, the Drug uptake in the data set with Laodelphax striatellus [3] and in the data set on Laodelphax striatellus [7] was 20% in each case.
